The values below come from patent publication US10213451B2, “Methods and compounds for modulating the secretion or expression of adhesion proteins or angiopoietins of cells” (PACIFIC ARROW LIMITED, priority 2004, dated 2019).

Values after ≈ are worked out from the molar mass of the structure shown. Where two headings read alike, the source gives them in different places.

Data set [1] deals with ES2 (human ovarian cancer) cells transplanted sc. Kind of data set: Animal study, size of sc ES2 tumor. The format is in vivo, Athymic Nu/Nu mice. How it is done: • Athymic Nu/Nu mice (2-3 months old) were transplanted sc with ES2 (human ovarian cancer) cells. • Five days after the transplant (day one), mice were divided into two groups (H and J) with two animals in each group. • Group H: On days 1-5, and 8-10 mice received daily drug administration of Xanifolia-Y, by i.p. route at dose of 2.5 mg/kg. • Group J mice received no drug-treatment.

A further data set concerns RMG2. Kind of data set: MTT assay RMG2. The format is cell-based. Particulars: Homo sapiens; RMG2, Clear cell. How it is done: (§1) Majority of ovarian cancers arise from the surface epithelium of ovary, most of them belong to the histological subtypes of clear cell and serous carcinoma. We obtained 10 more human ovarian carcinoma cell-lines of these histological subtypes for these studies. The inhibition activity exerted by Xanifolia-Y was determined with MTT assay.
(Tetrazolium assays rely on reduction of a dye to a coloured formazan, in cell work by metabolically active cells.)

Another data set has as its system ovarian cancer cells. As to the kind of experiment: MTT assay, growth of ovarian cancer cells (FIG. 3A, 3B). The settings on record: Homo sapiens, read-out: IC50, inhibiting growth of ovarian cancer cells. It counts as cell-based. The method, then:
(§2) Cells. Human cancer cell lines were obtained from American Type Culture Collection: HTB-9 (bladder), HeLa-S3 (cervix), DU145 (prostate), H460 (lung), MCF-7 (breast), K562 (leukocytes), HCT116 (colon), HepG2 (liver), U2OS (bone), T98G (brain), SK-MEL-5 (Skin) and OVCAR-3 (ovary). The cells were grown in following culture media: HeLa-53, DU145, MCF-7, Hep-G2 and T98G are in MEN (Earle's salts); HTB-9, H460, K562 and OVCAR-3 in RPMI-1640; HCT-116 and U2OS in McCoy-5A. They are supplemented with 10% fetal calf serum, glutamine and antibiotics, and incubated in an incubator with 5% CO2 humidified at 37° C.
(§3) MTT Assay. The procedure for MTT assay followed the method described by Carmichael et al. (1987) with modifications. […] The formazan (product of the reduction of tetrazolium by viable cells) formed and was dissolved with DMSO and the O.D. at 490 nm, and was measured by an ELISA reader. The MTT level of the cells before drug-treatment was also measured (T0). The % cell-growth (% G) is calculated as: % G=(TD−T0/TC−T0)×100(1), where TC or TD represents O.D. readings of control or drug-treated cells. When T0>TD, then the cytotoxicity (LC) expressed as % of the control is calculated as: % LC=(TD−T0/T0)×100(2).

The subject of data set [2] is OVCAR3 cells (from ovary). Kind of data set: MTT assay OVCAR3. Particulars: Homo sapiens, OVCAR-3; OVCAR3, Serous. The format is cell-based. How it is done:
as §2
MTT Assay. […] The formazan (product of the reduction of tetrazolium by viable cells) formed and was dissolved with DMSO and the O.D. at 490 nm, and was measured by an ELISA reader. The MTT level of the cells before drug-treatment was also measured (T0). The % cell-growth (% G) is calculated as: % G=(TD−T0/TC−T0)×100(1), where TC or TD represents O.D. readings of control or drug-treated cells. When T0>TD, then the cytotoxicity (LC) expressed as % of the control is calculated as: % LC=(TD−T0/T0)×100(2).
Majority of ovarian cancers arise from the surface epithelium of ovary, most of them belong to the histological subtypes of clear cell and serous carcinoma. […] The inhibition activity exerted by Xanifolia-Y was determined with MTT assay.

In another data set the test system is skin cancer cells. Kind of data set: MTT assay, growth of skin cancer cells. The settings on record: Homo sapiens. It counts as cell-based. The method, then:
as §2, §3

For a further data set, the system named is OVCA 432. Kind of data set: MTT assay OVCA 432. The format is cell-based. The settings on record: Homo sapiens, OVCA432; OVCA 432, Serous. The method, then:
as §1

A further data set relates to K562 cells membrane. Kind of data set: EM study of membrane structure. The format is cell-based, human. Particulars: 5 uM, 60 min. An excerpt: Xanifolia-Y has a potent hemolytic activity in red blood cells (FIG. 27). To study the effect of Xanifolia-Y on membrane structure, the morphology of cell membrane treated with Xanifolia-Y was examined with EM. […] Solvent DMSO and AKOH-Y (a derivative of Xanifolia-Y without the angeloyl group and it has no activity) served as controls. Cells were negative stained with 1% UAc and subsequently examined with EM.

For another data set, the system named is Caov 3. As to the kind of experiment: MTT assay Caov 3. The settings on record: Homo sapiens; Caov 3, Serous. It counts as cell-based. How it is done:
as §1

The test system of another data set is HeLa cells. Kind of data set: MTT assay HeLa. It counts as cell-based. The settings on record: Homo sapiens. The method, then:
as §2, §3

A further data set deals with TOV-21G. Kind of data set: MTT assay TOV-21G. Particulars: Homo sapiens, TOV21G, Clear cell. The format is cell-based. The method, then:
as §1

The next data set relates to Hey 8A. Kind of data set: MTT assay Hey 8A. It counts as cell-based, human. The method, then: as §1
Cells: Hey8A (human ovarian carcinoma cells) were grew in RPMI 1640 medium to 90% confluent before drug-treatment. Drug-treatment: Cells cultures were replaced with fresh RPMI medium containing either DMSO (as control) [D1]; or Xanifolia-Y (10, 15, or 20 ug/ml) [Y1, Y2 and Y3]. Aliquot of medium was removed as 0 hours sample and no FN was detected at this time. After 24 hours, aliquot of culture medium was taken out for Fibronectin determination (Western blot method). Cell viability at 24 hours was determined by MTT assay. Cultures were replaced with RPMI medium (5 ml) with MTT and incubated for an hour. The formation of formazan was dissolved in DMSO and OD at 570 nm was measured.

The subject of data set [3] is ES2 cells attached to flasks. As to the kind of experiment: Inhibition of cell adhesion to flasks, ES2. It counts as cell-based. The method, then: (§4) Methods and Results. ES2 or Hey8A cells were plated in T25 flasks with medium containing 5 ug/ml of Xanifolia-Y. Cultures were incubated for 5 hours. Attached cells were removed from flasks by trypsinization and the amounts were counted. Compare to no drug controls, 86±4% of ES2 cells and 67±8% of Hey8A cells were found attached to flasks under this condition. At 5 ug/ml Xanifolia-Y, over 90% of unattached cells are alive as determined by the trypan Blue exclusion assay and by their ability to re-attach to flasks when plating in medium without Xanifolia-Y. However, with 10 ug/ml Xanifolia-Y, less than 40% of cells attached to flasks and many of them are dead cells.
as §4, with “Results:” for “Results.”

Turning to `C/C=C(/C)C(=O)O[C@H]1[C@H](OC(=O)/C(C)=C\C)[C@@]2(CO)C(CC1(C)C)C1=CCC3[C@@]4(C)CC[C@H](O[C@@H]5OC(C(=O)O)[C@@H](O)C(O[C@@H]6O[C@@H](CO)C(O)C6O)C5O[C@@H]5OC(CO)[C@H](O)C(O)C5O)C(C)(C)C4CC[C@@]3(C)[C@]1(C)[C@@H](O)[C@H]2O` (stereo partly drawn) [Xanifolia-Y, 3-O-[β-D-galactopyranosyl (1→2)]-α-L-arabinofuranosy (1→3)-β-D-glucuronopyranosyl-21,22-O-diangeloyl-3β, 15α, 16α, 21β, 22α, 28-hexahydroxyolean-12-ene], the “tumor size smaller than in mice with no drug” value in [1] (10 days period) stood at 45%. In addition, the tumor size in data set [1] (Group H: i.p. 2.5 mg/kg days 1-5 and 8-10, in 10 days) was found to be 10 mm. The half-inhibitory concentration (IC50) with RMG2 is 8.8 µM; in the data set on ovarian cancer cells, roughly 1.5 µg/mL (≈ 1.31 µM); in data set [2], 2.2 µM; in the data set with skin cancer cells (FIG. 3C, purified compound, read-out: IC50, inhibition of growth of skin cancer cells), 0.23 µg/mL (≈ 0.202 µM); in the data set with skin cancer cells (read-out: IC50 on skin cells) it was 12 µg/mL (≈ 10.5 µM); in the data set with OVCA 432 it was 4.4 µM. In addition, the IC50 was 7 µM in the data set with Caov 3; 20 µg/mL (≈ 17.5 µM) in the data set with HeLa cells; 2.2 µM in the data set with TOV-21G; 10.5 µM with Hey 8A (Homo sapiens, Hey 8A, Serous). Moreover, in the data set with K562 cells membrane, the “membrane morphology (EM)” value is recorded as “patches of pits were found in the membrane”. Also, the “state of cells after drug-treatment” value in the data set on Hey 8A (Hey8A, 15 ug/ml and 20 ug/ml, 24 hours) is given as “found dead (floating)”. Further, the activity at 10 µg/mL in the data set with Hey 8A (Homo sapiens, Hey8A, 10 ug/ml, 24 hours, read-out: growth of cells, % of control (MTT)) is 83%. Also, the “cells attached to flasks, compared to no drug controls” value in [3] (ES2 cells, 5 ug/ml, 5 hours) came to 86±4%. The “unattached cells alive (trypan Blue exclusion, re-attachment)” value in data set [3] (ES2 or Hey8A cells, 5 ug/ml) is “over 90%”. Also, the “cells attached to flasks” value in [3] (ES2 or Hey8A cells, 10 ug/ml) was “less than 40%”.

For orientation: IC50 means the concentration that inhibits the measured activity by half.
